In US20030166606A1, “5'-deoxy-n-(substituted oxycarbonyl)-5-fluorocytosine and derivatives thereof, method of preparing same, and anticancer composition comprising same as active ingredients” (priority 2003, published 2003):
Values after ≈ are worked out from the molar mass of the structure shown. Where two headings read alike, the source gives them in different places.

How the values were obtained:
[1] = test system: HCT15 (colon cancer); test: MTT cell toxicity to human cancer cells, HCT15; assay type: cell-based; conditions: for IC50: Homo sapiens, HCT-15, 72 hours; for IC50 Cancer cell line HCT15: 72 hours, Table 3
Description: (§1) For measuring in vitro anticancer activity of 5′-deoxy-N^4-propargyloxycarbonyl-5-fluorocytosine-5′-carboxylic acid (R^3=propargyl, compound of 2a) using 5-Fu as a reference compound, cell toxicity to human cancer cell was evaluated. The cancer cells used were A549 (lung cancer), HCT15 (colon cancer), SK-OV-3 (ovarian cancer), and SK-MEL-2 (melanoma cancer).
(§2) The cancer cells were incubated in an incubator with a constant humidity at 37° C. and 5% CO2, and an RPMI medium with the addition of 10% fetal bovine serum was used for a basic medium. In order to identify cell toxicity, the cancer cells in a logarithmic phase were inoculated at 2-5×10^4 cells per well of a 96-well plate, and incubated for 24 hours. A sample solution of 5-FU and 5′-deoxy-N^4-propargyloxycarbonyl-5-flurocytosine-5′-carboxylic acid was stepwisely added to the well and incubated for 72 hours. 20 μl of 5 mg/ml MTT reacting solution dissolved in a physiological saline solution was added to the well of the incubated plate and incubated for 4 hours. The produced formazan crystal was dissolved in dimethylsulfoxide and absorbance of each well was measured at 540 nm to calculate a number of living cells. The absorbance of the well with the medium and without cell was set to 0%, that of the well without the sample was set to 100%, and the concentration corresponding to 50% was called an IC50 (μg/ml) value.
(§3) In order to measure anticancer activity of 5′-deoxy-N-alkyloxycarbonyl-5-fluorocytosine-5′-carboxylic acid (compound of Formula 2a) of the present invention using 5-FU as a control, the cell toxicity to human cancer cells was measured. The human cancer cells used were A549 (lung cancer), HCT15 (colon cancer), SK-OV-3 (ovarian cancer), and SK-MEL-2 (melanoma cancer).
(§4) The cancer cells were cultured in an incubator with a constant humidity at 37° C. and 5% CO2, and an RPMI medium with 10% fetal bovine serum was used for a medium. In order to measure cell toxicity, the cancer cells in a logarithmic phase were inoculated into 2 to 5×10^4 cells per well of a 96-well plate, incubated for 24 hours, and a sample solution of a stepwise dilution of 5-FU and 5′-deoxy-N^4-pentyloxycarbonyl-5-fluorocytocine-5′-carboxylic acid were added thereto followed by incubating for 72 hours. 20 μl of 5 mg/ml of MTT reacting solution dissolved in a physiological saline solution was added to each well of the incubated plate, incubated for 4 hours, the produced formazan crystal was dissolved in dimethylsulfoxide, and the absorbance of each well was measured at a wavelength of 540 nm to calculate the number of living cells.

[2] = test system: SK-OV-3 (ovarian cancer); test: MTT cell toxicity to human cancer cells, SK-OV-3; assay type: cell-based; conditions: for IC50: Homo sapiens, SK-OV-3, 72 hours; for IC50 Cancer cell line SK-OV-3: 72 hours, Table 3
Description: as §1, §2, §3, §4

[3] = test system: A549 (lung cancer); test: MTT cell toxicity to human cancer cells, A549; assay type: cell-based; conditions: for IC50 Cancer cell line A549: 72 hours, Table 3
Description: as §1, §2, §3, §4

[4] = test system: SK-MEL-2 (melanoma cancer); test: MTT cell toxicity to human cancer cells, SK-MEL-2; assay type: cell-based; conditions: for IC50 Cancer cell line SK-MEL2: 72 hours, Table 3
Description: as §1, §2, §3, §4

[5] = test system: mouse tumor cell line L1210; test: Anticancer activity on L1210 in BDF1 mice, increased life span (Example 34, Table 4); assay type: in vivo; conditions: for Average life maintenance day: control 8.8
Description: Capecitabine (5′-deoxy-N^4-(pentyloxycarbonyl)-5-fluorocytosine (in Formula 1, R^a=pentyl, R^b=hydrogen) which has good anticancer activity among. 5′-deoxy-N-alkyloxycarbonyl-5-fluorocytosine derivatives disclosed in European Patent No. 602454 was used for a control, 5′-deoxy-N^4-propazyloxycarbonyl-5-fluorocytosine-5′-carboxylic acid (Formula 2a) obtained from Example 3 was used for a sample, and anticancer activity to the mouse tumor cell line L1210 was measured.
The mice used were 5-week-old BDF1 male mice (19 to 20 g) that were purchased from Charles River Japan, and adapted for 1 week. The breeding condition of the mouse was set to a temperature of 24±2° C. and a humidity of […] Purified water for drinking was supplied to the mice twice a week, and straws and cages were changed once a week. The experiment was performed using two mice per group. As the tumor cell line, an L1210 mouse blood tumor cell line was used, the cell line was sub-cultured in a Falcon culture flask twice or three times, washed with a phosphorous buffer solution (pH 7.2), quantified under a microscope to produce a cell suspension of 1×10^7/ml, and 100 (1×10^6) […] of the cell suspension was abdominally administered to the mouse using 1 ml of a disposable sterilized injector. The drug was orally administered 24 hours after the cellular transplantation. The concentration of the administered capecitabine was 1.2, 5.7, 28.8, 144, and 720 mg/kg/100 μl for respective mice, and that of the compound of 2a of the present invention was 1.2, 5.8, 28.8 mg/kg/100 μl for respective mice. The capecitabine was dissolved in dimethylsulfoxide and suspended in 0.5% carboxymethyl cellulose, and the compound of 2a was dissolved in distilled water. The samples were administered to the mice five times a week for 3 weeks, for a total of 15 times, starting 24 hours after the tumor cell administration. The anticancer activity was determined as increased life span to control.

[6] = test system: mouse tumor cell line L1210; test: Anticancer activity on L1210 in BDF1 mice, increased life span (Example 35, Table 5); assay type: in vivo; conditions: 15 times; for Average life day: control 17.8
Description: The mice used were 5-week-old BDF1 male mice (19 to 20 g) that were purchased from Charles River Japan, and adapted for 1 week. The breeding condition of the mice was set to a temperature of 24±2° C. and a humidity of […] Purified water for drinking water was supplied to the mice twice a week, and straws and cages were changed once a week. The experiment was performed using two mice per group. […] The drug was orally administered 24 hours after the cellular transplantation. […] The capecitabine was dissolved in dimethylsulfoxide and suspended in 0.5% carboxymethyl cellulose, and the compound of 2a was dissolved in distilled water. […] The anticancer activity was determined as increased life span.

[7] = test system: mouse tumor cell line L1210; test: Anticancer activity on L1210 in BDF1 mice, increased life span (Example 6, Table 2); assay type: in vivo; conditions: for Increased life span (%) / Average survival date: 15 times; for Average survival date: control 17.8
Description: The mice used were 5-week-old BDF1 male mice (19 to 20 g) that were purchased from Charles River Japan, and adapted for 1 week. The breeding condition of the mice was set to a temperature of 24±2° C. and a humidity of 50±1° C. Purified water for drinking was supplied to the mice twice a week, and straws and cages were changed once a week. The experiment was performed using two mice per group. As the tumor cell line, an L1210 mouse blood tumor cell line was used, and the cell line was sub-cultured in a Falcon culture flask twice or three times, washed with a phosphorous buffer solution (pH 7.2), and quantified under a microscope to produce a cell suspension of 1×10^7/ml, and 100 (1×10^6) ml of the cell suspension was abdominally administered to the mouse using 1 ml of a disposable sterilized injector. The drug was orally administered 24 hours after the cellular transplantation. […] The samples were administered to the mice five times a week for 3 weeks, for a total of 15 times, starting 24 hours after the tumor cell administration. The anticancer activity was determined as increased life span to control.

Row | Compound | IC50 Cancer cell line HCT15 [1] [µg/mL] | IC50 Cancer cell line SK-OV-3 [2] [µg/mL] | IC50 Cancer cell line A549 [3] [µg/mL] | IC50 Cancer cell line SK-MEL2 [4] [µg/mL] | Life maintenance rate (%) ([6]; 1.2 mg/kg/day oral) | Average life day ([6]; 1.2 mg/kg/day oral) [days] | Life maintenance rate (%) ([6]; 5.8 mg/kg/day oral) | Average life day ([6]; 5.8 mg/kg/day oral) [days] | Life maintenance rate (%) ([6]; 28.8 mg/kg/day oral) | Average life day ([6]; 28.8 mg/kg/day oral) [days] | Increased life span (%) ([5]; 0.13 mmol/kg/day oral) | Average life maintenance day ([5]; 0.13 mmol/kg/day oral) [days] | Increased life span (%) ([5]; 0.67 mmol/kg/day oral) | Average life maintenance day ([5]; 0.67 mmol/kg/day oral) [days] | Increased life span (%) ([5]; 1.5 mmol/kg/day oral) | Average life maintenance day ([5]; 1.5 mmol/kg/day oral) [days] | Increased life span (%) ([7]; 5.8 mg/kg/day oral) | Average survival date ([7]; 5.8 mg/kg/day oral) [days] | Increased life span (%) ([7]; 28.8 mg/kg/day oral) | Average survival date ([7]; 28.8 mg/kg/day oral) [days] | other results
1 | O=c1[nH]cc(F)c(=O)[nH]1 [Example 5-FU, 5-fluorouracil, reference compound] | – | – | – | – | – | – | – | – | – | – | – | – | – | – | – | – | – | – | – | – | IC50 ([1]; Table 1, read-out: IC50 Concentration (μg/ml) HCT15): 0.11 µg/mL (≈ 0.846 µM); IC50 ([1]; Table 3, read-out: IC50 Cancer cell line HCT15): 0.11 µg/mL (≈ 0.846 µM); IC50 ([2]; Table 1, read-out: IC50 Concentration (μg/ml) SK-OV-3): 0.03 µg/mL (≈ 0.231 µM); IC50 ([2]; Table 3, read-out: IC50 Cancer cell line SK-OV-3): 0.03 µg/mL (≈ 0.231 µM); IC50 ([3]; Homo sapiens, A549, 72 hours, Table 3, read-out: IC50 Cancer cell line A549): 0.26 µg/mL (≈ 2 µM); IC50 ([4]; Homo sapiens, SK-MEL-2, 72 hours, Table 3, read-out: IC50 Cancer cell line SK-MEL2): 0.63 µg/mL (≈ 4.84 µM); Increased life span (%) ([5]; 0.15 mmol/kg/day): 62.5%; Average life maintenance day ([5]; 0.15 mmol/kg/day): 14.3 days; Increased life span (%) ([5]; 0.23 mmol/kg/day): 87.5%; Average life maintenance day ([5]; 0.23 mmol/kg/day): 16.5 days
2 | C=CCOC(=O)Nc1nc(=O)n([C@@H]2O[C@H](C(=O)O)[C@@H](O)[C@H]2O)cc1F [Example 30, 5′-deoxy-N^4-(allyloxycarbonyl)-5-fluorocytosine-5′-carboxylic acid] | 0.032 (≈ 0.0891 µM) | 0.008 (≈ 0.0223 µM) | 0.04 (≈ 0.111 µM) | 0.008 (≈ 0.0223 µM) | 25 | 22.1 | 39 | 24.8 | 44 | 25.7 | – | – | – | – | – | – | – | – | – | – | –
3 | CCCCCOC(=O)Nc1nc(=O)n([C@@H]2O[C@H](C(=O)O)[C@@H](O)[C@H]2O)cc1F [Example 28, 5′-deoxy-N^4-(pentyloxycarbonyl)-5-fluorocytosine-5′-carboxylic acid] | 0.12 (≈ 0.308 µM) | 0.03 (≈ 0.0771 µM) | 0.17 (≈ 0.437 µM) | 0.03 (≈ 0.0771 µM) | – | – | – | – | – | – | 3.4 | 9.1 | 28.4 | 11.3 | 91.9 | 16.8 | – | – | – | – | –
4 | CCCCCOC(=O)Nc1nc(=O)n([C@@H]2O[C@H](C)[C@@H](O)[C@H]2O)cc1F [Capecitabine, 5′-deoxy-N^4-(pentyloxycarbonyl)-5-fluorocytosine] | – | – | – | – | 6 | 18.9 | 8 | 19.2 | 14 | 20.2 | 6.8 | 9.4 | 9.1 | 9.6 | 42.0 | 12.5 | 8 | 19.2 | 14 | 20.2 | Life maintenance rate (%) ([6]; 144 mg/kg/day oral): 15%; Average life day ([6]; 144 mg/kg/day oral): 20.1 days; Life maintenance rate (%) ([6]; 720 mg/kg/day oral): 30%; Average life day ([6]; 720 mg/kg/day oral): 22.8 days; Increased life span (%) ([7]; 144 mg/kg/day oral): 15%; Average survival date ([7]; 144 mg/kg/day oral): 20.1 days; Increased life span (%) ([7]; 720 mg/kg/day oral): 30%; Average survival date ([7]; 720 mg/kg/day oral): 22.8 days
5 | C#CCOC(=O)Nc1nc(=O)n([C@@H]2O[C@H](C(=O)O)[C@@H](O)[C@H]2O)cc1F [Example 3, 5′-deoxy-N^4-(propargyloxycarbonyl)-5-fluorocytosine-5′-carboxylic acid] | 0.040 (≈ 0.112 µM) | 0.005 (≈ 0.014 µM) | 0.005 (≈ 0.014 µM) | 0.007 (≈ 0.0196 µM) | 8 | 20.1 | 11 | 20.6 | 23 | 21.9 | – | – | – | – | – | – | 11 | 20.6 | 23 | 21.9 | Increased life span (%) ([7]; 1.2 mg/kg/day oral): 8%; Average survival date ([7]; 1.2 mg/kg/day oral): 20.1 days; anticancer activity in vivo ([7]; summary of Table 2, animal experiment): good anticancer activity in vivo
6 | CCOC(=O)Nc1nc(=O)n([C@@H]2O[C@H](C(=O)O)[C@@H](O)[C@H]2O)cc1F [Example 25, 5′-deoxy-N^4-(ethyloxycarbonyl)-5-fluorocytosine-5′-carboxylic acid] | 0.47 (≈ 1.35 µM) | 0.16 (≈ 0.461 µM) | 0.49 (≈ 1.41 µM) | 0.16 (≈ 0.461 µM) | – | – | – | – | – | – | – | – | – | – | – | – | – | – | – | – | –
